Test results as given in patent US10865191B2, “Heterocyclic compounds useful as modulators of TNF alpha” (BRISTOL-MYERS SQUIBB COMPANY, priority 2015, dated 2020).

biological target: TNFα (Homo sapiens, UniProt P01375); assay: TNF induced HEK-Blue assay (NF-kB-driven secreted alkaline phosphatase reporter); type: cell-based; details: TNFα 0.5 ng/mL, HEK-Blue-CD40L cells, 18 h; read-out: TNF induced HEK-Blue assay IC50 value
Procedure, shortened: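 HEK-Blue-CD40L cells (NF-kB-driven SEAP reporter), 20,000/well, added after 30 min pre-incubation of compound (0.004–25 μM final) with TNFα 0.5 ng/mL final at 37 °C; 18 h incubation. SEAP read with QUANTI-Blue at 620 nm; IC50 from 4-parameter logistic fit, normalized to unstimulated and stimulated DMSO controls.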

Sequence of TNFα (P01375 77-233 limits assumed): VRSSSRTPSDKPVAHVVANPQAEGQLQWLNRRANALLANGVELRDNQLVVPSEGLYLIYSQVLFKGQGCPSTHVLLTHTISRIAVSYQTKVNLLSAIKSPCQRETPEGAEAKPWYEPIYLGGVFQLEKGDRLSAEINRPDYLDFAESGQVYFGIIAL

IC50 [nM] | SMILES
10000 to 25000 | Cc1nc2ccc(-c3cnc(C(C)(C)O)nc3)cc2c(N[C@H](C)c2ccccc2)c1Cl [Example 322, (R)-2-(5-(3-chloro-2-methyl-4-((1-phenylethyl)amino)quinolin-6-yl)pyrimidin-2-yl)propan-2-ol]
< 1000 | Cc1nc2ccc(-c3cnc(C(C)(C)O)nc3)cc2c(N[C@H](C)c2cc(CCO)ccc2F)c1Cl [Example 323, (R)-2-(5-(3-chloro-4-((1-(2-fluoro-5-(2-hydroxyethyl)phenyl)ethyl)amino)-2-methylquinolin-6-yl)pyrimidin-2-yl)propan-2-ol]
< 1000 | Cc1nc2cc(F)c(-c3cnc(C(C)(C)O)nc3)cc2c(N[C@H](C)c2cc(OCCO)ccc2F)c1Cl [Example 324, (R)-2-(5-(3-chloro-7-fluoro-4-((1-(2-fluoro-5-(2-hydroxyethoxy)phenyl)ethyl)amino)-2-methylquinolin-6-yl)pyrimidin-2-yl)propan-2-ol]
< 1000 | Cc1nc2cc(F)c(-c3cnc(C(C)(C)O)nc3)cc2c(N[C@H](C)c2cc(CCO)ccc2F)c1Cl [Example 325, (R)-2-(5-(3-chloro-7-fluoro-4-((1-(2-fluoro-5-(2-hydroxyethyl)phenyl)ethyl)amino)-2-methylquinolin-6-yl)pyrimidin-2-yl) propan-2-ol]
< 1000 | COc1ccc(F)c([C@@H](C)Nc2c(Cl)c(C)nc3ccc(-c4cnc(C(C)(C)O)nc4)cc23)c1 [Example 326, (R)-2-(5-(3-chloro-4-((1-(2-fluoro-5-methoxyphenyl)ethyl)amino)-2-methylquinolin-6-yl)pyrimidin-2-yl)propan-2-ol]
< 1000 | COc1ccc(F)c([C@@H](C)Nc2c(Cl)cnc3ccc(-c4cnc(C(C)(C)O)nc4)cc23)c1 [Example 327, (R)-2-(5-(3-chloro-4-((1-(2-fluoro-5-methoxyphenyl)ethyl)amino)quinolin-6-yl)pyrimidin-2-yl)propan-2-ol]
1000 to 10000 | COc1ccc(F)c([C@@H](C)Nc2c(Cl)c(C)nc3ccc(Br)cc23)c1 [Example 328, (R)-6-bromo-3-chloro-N-(1-(2-fluoro-5-methoxyphenyl)ethyl)-2-methylquinolin-4-amine]
1000 to 10000 | COc1ccc(F)c([C@@H](C)Nc2c(Cl)c(C)nc3ccccc23)c1 [Example 329, (R)-3-chloro-N-(1-(2-fluoro-5-methoxyphenyl)ethyl)-2-methylquinolin-4-amine]
< 1000 | C=Cc1ccc(F)c([C@@H](C)Nc2c(Cl)c(C)nc3ccc(-c4cnc(C(C)(C)O)nc4)cc23)c1 [Example 330, (R)-2-(5-(3-chloro-4-((1-(2-fluoro-5-vinylphenyl)ethyl)amino)-2-methylquinolin-6-yl)pyrimidin-2-yl)propan-2-ol]
< 1000 | Cc1nc2ccc(-c3cnc(C(C)(C)O)nc3)cc2c(N[C@H](C)c2cc(-c3ccccc3)ccc2F)c1Cl [Example 331, (R)-2-(5-(3-chloro-4-((1-(4-fluoro-[1,1′-biphenyl]—3-yl)ethyl)amino)-2-methylquinolin-6-yl)pyrimidin-2-yl)propan-2-ol]
< 1000 | Cc1ccccc1-c1ccc(F)c([C@@H](C)Nc2c(Cl)c(C)nc3ccc(-c4cnc(C(C)(C)O)nc4)cc23)c1 [Example 332, (R)-2-(5-(3-chloro-4-((1-(4-fluoro-2′-methyl-[1,1′-biphenyl]-3-yl)ethyl)amino)-2-methylquinolin-6-yl)pyrimidin-2-yl)propan-2-ol]
< 1000 | Cc1nc2ccc(-c3cnc(C(C)(C)O)nc3)cc2c(N[C@H](C)c2cc(C3=CCCC3)ccc2F)c1Cl [Example 333, (R)-2-(5-(3-chloro-4-((1-(5-(cyclopent-1-en-1-yl)-2-fluorophenyl)ethyl)amino)-2-methylquinolin-6-yl)pyrimidin-2-yl)propan-2-ol]
< 1000 | Cc1ccc(F)c([C@@H](C)Nc2c(Cl)c(C)nc3ccc(-c4cnc(C(C)(C)O)nc4)cc23)c1 [Example 334, (R)-2-(5-(3-chloro-4-((1-(2-fluoro-5-methylphenyl)ethyl)amino)-2-methylquinolin-6-yl)pyrimidin-2-yl)propan-2-ol]
< 1000 | Cc1nc2ccc(-c3cnc(C(C)(C)O)nc3)cc2c(N[C@H](C)c2cc(-c3cn[nH]c3)ccc2F)c1Cl [Example 335, (R)-2-(5-(3-chloro-4-((1-(2-fluoro-5-(1H-pyrazol-4-yl)phenyl)ethyl)amino)-2-methylquinolin-6-yl)pyrimidin-2-yl) propan-2-ol]
< 1000 | Cc1nc2ccc(-c3cnc(C(C)(C)O)nc3)cc2c(N[C@H](C)c2cc(-c3cc[nH]n3)ccc2F)c1Cl [Example 336, (R)-2-(5-(3-chloro-4-((1-(2-fluoro-5-(1H-pyrazol-3-yl)phenyl)ethyl)amino)-2-methylquinolin-6-yl)pyrimidin-2-yl)propan-2-ol]
1000 to 10000 | C[C@@H](Nc1c(Cl)cnc2ccc(-c3cnc(C(C)(C)O)nc3)cc12)c1cc(C2=CCN(C(=O)OC(C)(C)C)CC2)ccc1F [Example 337, tert-butyl (R)-4-(3-(1-((3-chloro-6-(2-(2-hydroxypropan-2-yl)pyrimidin-5-yl)quinolin-4-yl)amino)ethyl)-4-fluorophenyl)-3,6-dihydropyridine-1(2H)-carboxylate]
< 1000 | C[C@@H](Nc1c(Cl)cnc2ccc(-c3cnc(C(C)(C)O)nc3)cc12)c1cc(C2=CCNCC2)ccc1F [Example 338, (R)-2-(5-(3-chloro-4-((1-(2-fluoro-5-(1,2,3,6-tetrahydropyridin-4-yl)phenyl)ethyl)amino)quinolin-6-yl)pyrimidin-2-yl)propan-2-ol]

The next lines start with the compound.

SMILES | IC50 [nM]
Cc1nc2c(F)cc(-c3cnc(C(C)(C)O)nc3)cc2c(N[C@H](C)c2cc(C#N)ccc2F)c1Cl [Example 302, (R)-3-(1-((3-chloro-8-fluoro-6-(2-(2-hydroxypropan-2-yl)pyrimidin-5-yl)-2-methylquinolin-4-yl)amino)ethyl)-4-fluorobenzonitrile] | < 1000
Cc1nc2c(F)cc(-c3cnc(C(C)(C)O)nc3)cc2c(N[C@H](C)c2cc(C(N)=O)ccc2F)c1Cl [Example 303, (R)-3-(1-((3-chloro-8-fluoro-6-(2-(2-hydroxypropan-2-yl)pyrimidin-5-yl)-2-methylquinolin-4-yl)amino)ethyl)-4-fluorobenzamide] | < 1000
C[C@@H](Nc1c(Cl)cnc2cc(F)c(-c3cnc(N4CCN(CC(=O)NCC(=O)O)CC4)nc3)cc12)c1ccccc1F [Example 304, (R)-(2-(4-(5-(3-chloro-7-fluoro-4-((1-(2-fluorophenyl)ethyl)amino)quinolin-6-yl)pyrimidin-2-yl)piperazin-1-yl)acetyl)glycine] | < 1000
Cc1nc2c(F)cc(-c3ccc(C(C)(C)O)cc3)cc2c(N[C@@H](c2ccccc2F)C(F)F)c1Cl [Example 305, (S)-2-(4-(3-chloro-4-((2,2-difluoro-1-(2-fluorophenyl)ethyl)amino)-8-fluoro-2-methylquinolin-6-yl)phenyl)propan-2-ol] | < 1000
Cc1nc2c(F)cc(-c3cnc(C(C)(C)O)nc3)cc2c(NC(C)c2ccccc2)c1Cl (stereo not shown) [Example 306, 2-(5-(3-chloro-8-fluoro-2-methyl-4-((1-phenylethyl)amino)quinolin-6-yl)pyrimidin-2-yl)propan-2-ol] | < 1000
Cc1nc2ccc(-c3ccc(C(C)(C)O)cc3)cc2c(N[C@H](C)c2cc(C(N)=O)ccc2F)c1Cl [Example 312, (R)-3-(1-((3-chloro-6-(4-(2-hydroxypropan-2-yl)phenyl)-2-methylquinolin-4-yl)amino)ethyl)-4-fluorobenzamide] | < 1000
Cc1nc2ccc(-c3cnc(N4CCOCC4)nc3)cc2c(N[C@H](C)c2cc(C(N)=O)ccc2F)c1Cl [Example 313, (R)-3-(1-((3-chloro-2-methyl-6-(2-morpholinopyrimidin-5-yl)quinolin-4-yl)amino)ethyl)-4-fluorobenzamide] | < 1000
Cc1nc2ccc(-c3cnc(C(C)(C)O)nc3)cc2c(N[C@H](C)c2cc(C#N)ccc2F)c1C [Example 314, (R)-4-fluoro-3-(1-((6-(2-(2-hydroxypropan-2-yl)pyrimidin-5-yl)-2,3-dimethylquinolin-4-yl)amino)ethyl)benzonitrile] | < 1000
Cc1nc2ccc(-c3cnc(C(C)(C)O)nc3)cc2c(N[C@H](C)c2cc(C(N)=O)ccc2F)c1C [Example 315, (R)-4-fluoro-3-(1-((6-(2-(2-hydroxypropan-2-yl)pyrimidin-5-yl)-2,3-dimethylquinolin-4-yl)amino)ethyl)benzamide] | 10000 to 25000
Cc1nc2ccc(-c3cnc(C(C)(C)O)nc3)cc2c(N[C@H](C)c2cc(Br)ccc2F)c1Cl [Example 316, (R)-2-(5-(4-((1-(5-bromo-2-fluorophenyl)ethyl)amino)-3-chloro-2-methylquinolin-6-yl)pyrimidin-2-yl)propan-2-ol] | < 1000
C[C@@H](Nc1c(Cl)cnc2ccc(-c3cnc(C(C)(C)O)nc3)cc12)c1cc(Br)ccc1F [Example 318, (R)-2-(5-(4-((1-(5-bromo-2-fluorophenyl)ethyl)amino)-3-chloroquinolin-6-yl)pyrimidin-2-yl)propan-2-ol] | < 1000
C[C@@H](Nc1c(Cl)cnc2ccc(-c3cnc(C(C)(C)O)nc3)cc12)c1cccc(Br)c1 [Example 319, (R)-2-(5-(4-((1-(3-bromophenyl)ethyl)amino)-3-chloroquinolin-6-yl)pyrimidin-2-yl)propan-2-ol] | < 1000
Cc1nc2ccc(-c3cnc(C(C)(C)O)nc3)cc2c(N[C@@H](c2cc(Br)ccc2F)C(F)F)c1Cl [Example 320, (S)-2-(5-(4-((1-(5-bromo-2-fluorophenyl)-2,2-difluoroethyl)amino)-3-chloro-2-methylquinolin-6-yl)pyrimidin-2-yl)propan-2-ol] | < 1000
Cc1nc2ccc(-c3cnc(C(C)(C)O)nc3)cc2c(N[C@H](c2cc(Br)ccc2F)C(F)F)c1Cl [Example 321, (R)-2-(5-(4-((1-(5-bromo-2-fluorophenyl)-2,2-difluoroethyl)amino)-3-chloro-2-methylquinolin-6-yl)pyrimidin-2-yl) propan-2-ol] | 10000 to 25000
